32 molecules from patent US6472418B1, “Non-peptide NK1 receptors antagonists” (Warner-Lambert Company, priority 1998, dated 2002) can be followed below.

T1 sequence (P25103 whole entry): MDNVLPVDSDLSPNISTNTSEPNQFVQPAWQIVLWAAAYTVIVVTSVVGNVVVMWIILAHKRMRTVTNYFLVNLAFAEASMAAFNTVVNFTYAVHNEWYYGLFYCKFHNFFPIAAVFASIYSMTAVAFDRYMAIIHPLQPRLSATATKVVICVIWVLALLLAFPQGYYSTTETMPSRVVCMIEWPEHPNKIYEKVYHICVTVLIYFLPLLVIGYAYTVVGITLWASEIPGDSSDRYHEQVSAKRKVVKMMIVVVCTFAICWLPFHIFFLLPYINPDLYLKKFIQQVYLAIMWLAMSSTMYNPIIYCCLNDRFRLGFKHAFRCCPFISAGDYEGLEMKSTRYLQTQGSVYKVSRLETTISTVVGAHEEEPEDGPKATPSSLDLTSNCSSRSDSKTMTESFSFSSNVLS

The experiment addresses T1, Human NK1 Receptor (Homo sapiens, UniProt P25103).
T1 construct: endogenous in cells; host or cells: Human lymphoma IM9 cells (whole cells)
The experiment in a line: In Vitro Human NK1 Receptor Binding Assay ([125I]Bolton-Hunter substance P displacement, IM9 cells). Conditions: human NK1 receptor, IM9 cells, [125I]Bolton-Hunter substance P; read-out: IC50 (nM) hNK1. The method in brief:
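Test compounds competed with 0.05-0.1 nM [125I]Bolton-Hunter substance P for binding to intact IM9 cells over 50 min at 21° C, pH 7.4 buffer with MnCl2 and peptidase inhibitors. […] [Sar9, Met(O2)11] substance P gave non-specific binding. Bound counts were measured after filtration and fitted iteratively.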
One may read the IC50 as the concentration needed to halve the response being measured. Regarding `CC(Cc1c[nH]c2ccccc12)(NCc1cc2ccccc2o1)C(=O)NCC(c1ccccc1)c1ccccc1` (centres unmarked) [compound 98, 2-[(Benzofuran-2-ylmethyl)-amino]-N-(2,2-diphenyl-ethyl)-3-(1H-indol-3-yl)-2-methyl-propionamide], the IC50 was greater than 10000 nM.
Then `CC(Cc1c[nH]c2ccccc12)(NCc1cc2ccccc2o1)C(=O)NCCN1CCCC1=O` (centres unmarked) [compound 99, 2-[(Benzofuran-2-ylmethyl)-amino]-3-(1H-indol-3-yl)-2-methyl-N-[2-(2-oxo-pyrrolidin-1-yl)-ethyl]-propionamide], with greater than 10000 nM.
Under `CC(Cc1c[nH]c2ccccc12)(NCc1cc2ccccc2o1)C(=O)NCc1ccc([N+](=O)[O-])o1` (centres unmarked) [compound 100, 2-[(Benzofuran-2-ylmethyl)-amino]-3-(1H-indol-3-yl)-2-methyl-N-(5-nitro-furan-2-ylmethyl)-propionamide] stands 390 nM.
Under `Cc1[nH]cnc1CCNC(=O)C(C)(Cc1c[nH]c2ccccc12)NCc1cc2ccccc2o1` (centres unmarked) [compound 101, 2-[(Benzofuran-2-ylmethyl)-amino]-3-(1H-indol-3-yl)-2-methyl-N-[2-(5-methyl-1H-imidazol-4-yl)-ethyl]-propionamide] stands greater than 10000 nM.
Turning to `CN(C)c1cccc(C2(CNC(=O)C(C)(Cc3c[nH]c4ccccc34)NCc3cc4ccccc4o3)CCCC2)c1` (centres unmarked) [compound 102, 2-[(Benzofuran-2-ylmethyl)-amino]-N-[1-(3-dimethylamino-phenyl)-cyclopentylmethyl]-3-(1H-indol-3-yl)-2-methyl-propionamide], the half-inhibitory concentration (IC50) is greater than 10000 nM.
Under `CC(Cc1c[nH]c2ccccc12)(NCc1cc2ccccc2o1)C(=O)NCc1nc2ccccc2[nH]1` (centres unmarked) [compound 103, 2-[(Benzofuran-2-ylmethyl)-amino]-N-(1H-benzoimidazol-2-ylmethyl)-3-(1H-indol-3-yl)-2-methyl-propionamide] stands 74 nM; under `CC(Cc1c[nH]c2ccccc12)(NCc1cc2ccccc2o1)C(=O)NCC1(c2ccccc2)OCCO1` (centres unmarked) [compound 105], greater than 10000 nM.
Under `CN1Cc2ccccc2CC1CNC(=O)C(C)(Cc1c[nH]c2ccccc12)NCc1cc2ccccc2o1` (centres unmarked) [compound 106, 2-[(Benzofuran-2-ylmethyl)-amino]-3-(1H-indol-3-yl)-2-methyl-N-(2-methyl-1,2,3,4-tetrahydro-isoquinolin-3-ylmethyl)-propionamide] stands 4630 nM; under `CC(Cc1c[nH]c2ccccc12)(NCc1cc2ccccc2o1)C(=O)NC1CC1c1ccccc1` (centres unmarked) [compound 107, 2-[(Benzofuran-2-ylmethyl)-amino]-3-(1H-indol-3-yl)-2-methyl-N-(2-phenyl-cyclopropyl)-propionamide], 4150 nM.
Then `CC(Cc1c[nH]c2ccccc12)(NCc1cc2ccccc2o1)C(=O)NCC1Cc2ccccc2CN1` (centres unmarked) [compound 108, 2-[(Benzofuran-2-ylmethyl)-amino]-3-(1H-indol-3-yl)-2-methyl-N-(1,2,3,4-tetrahydro-isoquinolin-3-ylmethyl)-propionamide], with 4570 nM; and `CC(Cc1c[nH]c2ccccc12)(NCc1cc2ccccc2o1)C(=O)NCc1cc(Cl)sc1Cl` (centres unmarked) [compound 109, 2-[(Benzofuran-2-ylmethyl)-amino]-N-(2,5-dichloro-thiophen-3-ymethyl)-3-(1H-indol-3-yl)-2-methyl-propionamide], with 279 nM.
`CC(Cc1c[nH]c2ccccc12)(NCc1cc2ccccc2o1)C(=O)NCC1(c2ccccc2)CC1` (centres unmarked) [compound 110, 2-[(Benzofuran-2-ylmethyl)-amino]-3-(1H-indol-3-yl)-2-methyl-N-(1-phenyl-cyclopropylmethyl)-propionamide]: the IC50 turned out to be 1140 nM.
As for `CC(Cc1c[nH]c2ccccc12)(NCc1cc2ccccc2o1)C(=O)NC1CCc2ccccc2C1` (centres unmarked) [compound 111, 2-[(Benzofuran-2-ylmethyl)-amino]-3-(1H-indol-3-yl)-2-methyl-N-(1,2,3,4-tetrahydro-naphthalen-2-yl)-propionamide], the half-maximal inhibitory concentration (IC50) is greater than 10000 nM.
Then `CC(Cc1c[nH]c2ccccc12)(NCc1cc2ccccc2o1)C(=O)NCc1cccc([N+](=O)[O-])c1` (centres unmarked) [compound 112, 2-[(Benzofuran-2-ylmethyl)-amino]-3-(1H-indol-3-yl)-2-methyl-N-(3-nitro-benzyl)-propionamide], with 12 nM; and `CC(Cc1c[nH]c2ccccc12)(NCc1cc2ccccc2o1)C(=O)NC1Cc2ccccc2C1` (centres unmarked) [compound 113, 2-[(Benzofuran-2-ylmethyl)-amino]-N-indan-2-yl-3-(1H-indol-3-yl)-2-methyl-propionamide], with 463 nM; and `CCC(NC(=O)C(C)(Cc1c[nH]c2ccccc12)NCc1cc2ccccc2o1)c1cccs1` (centres unmarked) [compound 114, 2-[(Benzofuran-2-ylmethyl)-amino]-3-(1H-indol-3-yl)-2-methyl-N-(1-thiophen-2-yl-propyl)-propionamide], with 128 nM.
Under `CC(Cc1c[nH]c2ccccc12)(NCc1cc2ccccc2o1)C(=O)NCCc1ccco1` (centres unmarked) [compound 115, 2-[(Benzofuran-2-ylmethyl)-amino]-N-(2-furan-2-yl-ethyl)-3-(1H-indol-3-yl)-2-methyl-propionamide] stands 154 nM; under `CC(Cc1c[nH]c2ccccc12)(NCc1cc2ccccc2o1)C(=O)NCC1(O)CCCCC1` (centres unmarked) [compound 116, 2-[(Benzofuran-2-ylmethyl)-amino]-N-(1-hydroxy-cyclohexylmethyl)-3-(1H-indol-3-yl)-2-methyl-propionamide], greater than 10000 nM; under `CC(Cc1c[nH]c2ccccc12)(NCc1cc2ccccc2o1)C(=O)NCC1(c2ccco2)CCC1` (centres unmarked) [compound 117, 2-[(Benzofuran-2-ylmethyl)-amino]-N-(1-furan-2-yl-cyclobutylmethyl)-3-(1H-indol-3-yl)-2-methyl-propionamide], greater than 10000 nM.
Under `CC(NC(=O)C(C)(Cc1c[nH]c2ccccc12)NCc1cc2ccccc2o1)c1ccc(Cl)s1` (centres unmarked) [compound 118, 2-[(Benzofuran-2-ylmethyl)-amino]-N-[1-(5-chloro-thiophen-2-yl)-ethyl]-3-(1H-indol-3-yl)-2-methyl-propionamide] stands 45 nM; under `CC(Cc1c[nH]c2ccccc12)(NCc1cc2ccccc2o1)C(=O)NCc1ccc([N+](=O)[O-])cc1` (centres unmarked) [compound 119, 2-[(Benzofuran-2-ylmethyl)-amino]-3-(1H-indol-3-yl)-2-methyl-N-(4-nitro-benzyl)-propionamide], 89 nM; under `CC(Cc1n[nH]c2ccccc12)NC(=O)C(C)(Cc1c[nH]c2ccccc12)NCc1cc2ccccc2o1` (centres unmarked) [compound 120, 2-[(Benzofuran-2-ylmethyl)-amino]-N-[2-(1H-indazol-3-yl)-1-methyl-ethyl]-3-(1H-indol-3-yl)-2-methyl-propionamide], 2650 nM.
As to `CC(Cc1c[nH]c2ccccc12)(NCc1cc2ccccc2o1)C(=O)NCCn1cccc1` (centres unmarked) [compound 121, 2-[(Benzofuran-2-ylmethyl)-amino]-3-(1H-indol-3-yl)-2-methyl-N-(2-pyrrol-1-yl-ethyl)-propionamide], the IC50 was determined as 654 nM.
Then `CC(NC(=O)C(C)(Cc1c[nH]c2ccccc12)NCc1cc2ccccc2o1)c1cc(Cl)sc1Cl` (centres unmarked) [compound 122, 2-[(Benzofuran-2-ylmethyl)-amino]-N-[1-(2,5-dichloro-thiophen-3-yl)-ethyl]-3-(1H-indol-3-yl)-2-methyl-propionamide], with 442 nM.
On to `CC(Cc1c[nH]c2ccccc12)(NCc1cc2ccccc2o1)C(=O)NCCN1CCC2CCCCC21` (centres unmarked) [compound 123, 2-[(Benzofuran-2-ylmethyl)-amino]-3-(1H-indol-3-yl)-2-methyl-N-[2-(octahydro-indol-1-yl)-ethyl]-propionamide], for which the IC50 was greater than 10000 nM.
Then `CC(NC(=O)C(C)(Cc1c[nH]c2ccccc12)NCc1cc2ccccc2o1)c1ccc([N+](=O)[O-])cc1` (centres unmarked) [compound 124, 2-[(Benzofuran-2-ylmethyl)-amino]-3-(1H-indol-3-yl)-2-methyl-N-[1-(4-nitro-phenyl)-ethyl]-propionamide], with 92 nM; and `CC(Cc1c[nH]c2ccccc12)(NCc1cc2ccccc2o1)C(=O)NCCN1CCCCC1` (centres unmarked) [compound 125, 2-[(Benzofuran-2-ylmethyl)-amino]-3-(1H-indol-3-yl)-2-methyl-N-(2-piperidin-1-yl-ethyl)-propionamide], with greater than 10000 nM.
Then `CC1(CNC(=O)C(C)(Cc2c[nH]c3ccccc23)NCc2cc3ccccc3o2)OCCO1` (centres unmarked) [compound 126, 2-[(Benzofuran-2-ylmethyl)-amino]-3-(1H-indol-3-yl)-2-methyl-N-(2-methyl-[1,3]dioxolan-2-ylmethyl)-propionamide], with 6790 nM; and `CC(Cc1c[nH]c2ccccc12)(NCc1cc2ccccc2o1)C(=O)NCc1ccco1` (centres unmarked) [compound 127, 2-[(Benzofuran-2-ylmethyl)-amino]-N-furan-2-ylmethyl-3-(1H-indol-3-yl)-2-methyl-propionamide], with 191 nM.
Then `CC(Cc1c[nH]c2ccccc12)(NCc1cc2ccccc2o1)C(=O)NCCN1CCOCC1` (centres unmarked) [compound 128, 2-[(Benzofuran-2-ylmethyl)-amino]-3-(1H-indol-3-yl)-2-methyl-N-(2-morpholin-4-yl-ethyl)-propionamide], with greater than 10000 nM; and `Cc1cccc(CNC(=O)C(C)(Cc2c[nH]c3ccccc23)NCc2cc3ccccc3o2)c1` (centres unmarked) [compound 129, 2-[(Benzofuran-2-ylmethyl)-amino]-3-(1H-indol-3-yl)-2-methyl-N-(3-methyl-benzyl)-propionamide], with 43 nM; and `CC(Cc1c[nH]c2ccccc12)(NCc1cc2ccccc2o1)C(=O)NC1CCc2ccccc21` (centres unmarked) [compound 130, 2-[(Benzofuran-2-ylmethyl)-amino]-N-indan-1-yl-3-(1H-indol-3-yl)-2-methyl-propionamide], with 163 nM.
